Here are results for seven compounds from patent US8802686B2, “Sulfone-substituted anilinopyrimidine derivatives as CDK inhibitors, the production thereof, and use as a medicine” (Bayer Intellectual Property GmbH, priority 2008, dated 2014).

As a reminder, the Papp A→B is how fast a substance crosses the layer from the apical side. In general, Papp B→A refers to how fast a substance crosses the layer from the basolateral side.

One data set deals with CDK1/CycB (Homo sapiens (Human), UniProt P06493). The experiment in a line: CDK1/CycB kinase assay (Assay 1). It counts as biochemical. The note with it: read-out: CDK1/CycB (Assay 1) Concentration of the half-maximal inhibition of the enzyme activity, IC50.
Sequence of CDK1/CycB (P06493 whole entry): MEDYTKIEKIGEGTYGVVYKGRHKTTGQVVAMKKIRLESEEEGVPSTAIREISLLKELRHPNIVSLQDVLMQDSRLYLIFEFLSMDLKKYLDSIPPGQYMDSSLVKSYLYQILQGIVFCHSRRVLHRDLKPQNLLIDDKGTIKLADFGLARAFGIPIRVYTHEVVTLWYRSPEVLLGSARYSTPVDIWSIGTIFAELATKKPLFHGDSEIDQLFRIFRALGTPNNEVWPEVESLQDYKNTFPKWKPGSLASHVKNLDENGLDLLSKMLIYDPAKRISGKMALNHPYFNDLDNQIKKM
Sequence of CDK1/CycB (P14635 whole entry partner): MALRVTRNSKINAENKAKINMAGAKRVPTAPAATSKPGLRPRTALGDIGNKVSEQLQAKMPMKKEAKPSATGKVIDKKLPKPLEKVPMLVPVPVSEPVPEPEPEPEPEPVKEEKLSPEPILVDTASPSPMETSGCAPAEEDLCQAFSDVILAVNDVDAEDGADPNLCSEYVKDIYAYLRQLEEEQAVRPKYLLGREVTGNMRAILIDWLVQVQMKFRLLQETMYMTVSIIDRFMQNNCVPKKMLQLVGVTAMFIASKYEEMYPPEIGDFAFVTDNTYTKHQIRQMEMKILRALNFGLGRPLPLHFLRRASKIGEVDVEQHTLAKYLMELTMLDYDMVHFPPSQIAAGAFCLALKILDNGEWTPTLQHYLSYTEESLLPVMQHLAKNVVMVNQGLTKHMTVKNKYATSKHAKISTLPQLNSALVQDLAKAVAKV
A further data set deals with CDK2/CycE (Homo sapiens (Human), UniProt P24941). The data set can be described thus: CDK2/CycE kinase assay (Assay 2). The data set is classed as biochemical. The note with it: read-out: CDK2/CycE (Assay 2) Concentration of the half-maximal inhibition of the enzyme activity, IC50.
A further data set concerns the target CDK4/CycD1 (Homo sapiens (Human), UniProt P11802). The experiment in a line: CDK4/CycD kinase assay (Assay 3). It counts as biochemical. The note with it: read-out: CDK4/CycD (Assay 3) Concentration of the half-maximal inhibition of the enzyme activity, IC50. On the procedure:
Recombinant CDK4 and CycD1-GST fusion proteins, purified from baculovirus-infected insect cells (Sf9), were purchased from ProQinase GmbH, Freiburg. CDK4/CycD1 (250 ng/measuring point) was incubated for 3 hours at 22° C. in the presence of different concentrations of test substances (0 μM, and within the range 0.001-10 μM) in 31 μl of assay buffer [50 mM Hepes pH 7.0; 2.5 mM MnCl; 0.05 mM Na ortho-vanadate; 1.0 mM dithiothreitol; 0.25 μM adenosine trisphosphate (ATP); 0.5 μM biotinylated myelin basic protein (bio-MPB, GE Healthcare); 0.05 μCi/measuring point ^33P-gamma ATP; 0.005% NP40; 0.025% bovine serum albumin; 3% dimethyl sulphoxide]. The reaction was stopped by adding 50 μl of stop-mix [100 μM ATP; 10 mM EDTA pH 8.0; 0.2% Triton X100; 0.125 mg of streptavidin-SPA Beads (GE Healthcare)]. After incubation for 10 min at room temperature, the SPA beads were pelleted by centrifugation (10 min; 1500 g). The amount of incorporated ^33P (substrate phosphorylation) was determined by scintillation measurement in a beta-radiation measuring instrument (Microbeta, Perkin Elmer).

In data set [1] the target is VEGF receptor tyrosine kinase-2 (VEGF-R2) (Homo sapiens (Human), UniProt P35968). The experiment in a line: VEGF receptor-2 kinase assay (Assay 4). The data set is classed as biochemical. Conditions: read-out: VEGF-R2 (Assay 4) Concentration of the half-maximal inhibition of the enzyme activity, IC50.
Sequence of VEGF receptor tyrosine kinase-2 (VEGF-R2) (P35968 20-1356, species assumed): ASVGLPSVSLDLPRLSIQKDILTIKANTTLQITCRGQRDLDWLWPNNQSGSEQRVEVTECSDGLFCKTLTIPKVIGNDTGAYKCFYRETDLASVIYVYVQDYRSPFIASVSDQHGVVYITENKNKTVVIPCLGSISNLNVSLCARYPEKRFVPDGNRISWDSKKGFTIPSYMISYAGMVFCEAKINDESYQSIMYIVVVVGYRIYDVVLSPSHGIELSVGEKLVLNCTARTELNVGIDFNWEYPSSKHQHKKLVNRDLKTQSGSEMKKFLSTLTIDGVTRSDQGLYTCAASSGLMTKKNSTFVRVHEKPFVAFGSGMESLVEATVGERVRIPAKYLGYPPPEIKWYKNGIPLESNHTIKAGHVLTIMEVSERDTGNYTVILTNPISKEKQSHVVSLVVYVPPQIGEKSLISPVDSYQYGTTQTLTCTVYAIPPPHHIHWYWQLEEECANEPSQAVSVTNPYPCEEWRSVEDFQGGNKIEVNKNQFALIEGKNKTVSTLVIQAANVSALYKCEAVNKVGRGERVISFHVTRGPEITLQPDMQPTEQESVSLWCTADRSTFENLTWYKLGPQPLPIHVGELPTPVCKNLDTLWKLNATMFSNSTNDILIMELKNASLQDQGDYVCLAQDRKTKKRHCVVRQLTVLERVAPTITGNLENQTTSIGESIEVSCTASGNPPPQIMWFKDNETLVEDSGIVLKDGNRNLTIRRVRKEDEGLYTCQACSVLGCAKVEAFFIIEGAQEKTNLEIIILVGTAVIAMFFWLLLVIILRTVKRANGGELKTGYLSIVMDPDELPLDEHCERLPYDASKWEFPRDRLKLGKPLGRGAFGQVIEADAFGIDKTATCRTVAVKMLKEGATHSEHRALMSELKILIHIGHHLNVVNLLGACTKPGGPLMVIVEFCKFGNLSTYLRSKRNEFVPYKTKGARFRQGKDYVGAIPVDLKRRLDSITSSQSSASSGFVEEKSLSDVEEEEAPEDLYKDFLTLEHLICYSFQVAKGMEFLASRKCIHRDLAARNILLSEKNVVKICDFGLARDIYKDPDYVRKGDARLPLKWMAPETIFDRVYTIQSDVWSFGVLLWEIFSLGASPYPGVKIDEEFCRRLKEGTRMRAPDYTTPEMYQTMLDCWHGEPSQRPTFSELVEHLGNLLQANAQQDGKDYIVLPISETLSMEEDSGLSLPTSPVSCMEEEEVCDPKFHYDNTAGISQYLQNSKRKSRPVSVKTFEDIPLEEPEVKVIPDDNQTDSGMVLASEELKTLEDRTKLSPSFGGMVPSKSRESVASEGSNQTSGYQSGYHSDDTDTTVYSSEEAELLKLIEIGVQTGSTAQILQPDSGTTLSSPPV
Procedure: Recombinant VEGF receptor tyrosine kinase-2 was purified as GST fusion protein from baculovirus-infected insect cells (Sf9). Poly-(Glu4Tyr), which was used as kinase substrate, was purchased from Sigma.
VEGF receptor tyrosine kinase (90 ng/measuring point) was incubated for 10 min at 22° C. in the presence of different concentrations of test substances (0 μM, and within the range 0.001-10 μM) in 30 μl of assay buffer [40 mM Tris/HCl pH 5.5; 10 mM MgCl2; 1 mM MnCl2; 3 μM Na ortho-vanadate; 1.0 mM dithiothreitol; 8 μM adenosine trisphosphate (ATP); 0.96 μg/measuring point poly-(Glu4Tyr); 0.2 μCi/measuring point ^33P-gamma ATP; 1.4% dimethyl sulphoxide]. The reaction was stopped by adding EDTA solution (250 mM; pH 8.0; 15 μl/measuring point).
(§2) From each reaction mixture, 15 μl were applied to P30 filter strips (Wallac), and unincorporated ^33P-ATP was removed by washing the filter strips three times, for 10 min in each case, in 0.5% phosphoric acid. After drying the filter strips for 1 hour at 70° C., the filter strips were covered with scintillator strips (MeltiLex™ A, Wallac) and stoved for 1 hour at 90° C. The amount of incorporated ^33P (substrate phosphorylation) was determined by scintillation measurement in a gamma-radiation measuring instrument (Wallac). […] The IC50 values were determined by means of a 4-parameter fit using the company's own software.
For data set [2], the system named is HeLa-MaTu-ADR (HeLa-MaTu-MDR, multiple drug-resistant human cervix carcinoma cells). The experiment in a line: Proliferation assay (Assay 5), HeLa-MaTu-ADR. The data set is classed as cell-based. Conditions: 96 h, read-out: Concentration of the half-maximal inhibition of the cell proliferation, IC50. The source says:
(§1) Cultivated human tumour cells (MCF7, hormone-independent human breast carcinoma cells, acquired from ATCC HTB22; NCI-H460, human non-small-cell lung carcinoma cells, ATCC HTB-177; DU 145, hormone-independent human prostrate carcinoma cells, ATCC HTB-81; HeLa-MaTu, human cervix carcinoma cells, EPO-GmbH, Berlin; HeLa-MaTu-MDR, multiple drug-resistant human cervix carcinoma cells, EPO-GmbH, Berlin; Caco-2, human colon carcinoma cells, ATCC HTB-37; B16F10, murine melanoma cell, ATCC CRL-6475) were plated out at a density of ca. 1000-5000 cells/measuring point, depending on the growth rate of the particular cells, in a 96-well multititre plate in 200 μl of the corresponding growth medium. After 24 hours, the cells of one plate (zero-point plate) were stained with crystal violet (see below), whereas the medium of the other plates was replaced with fresh culture medium (200 μl), to which the test substances had been added at different concentrations (0 μM, and in the range 0.003-3 μM; the final concentration of the solvent dimethyl sulphoxide was 0.5%). The cells were incubated for 4 days in the presence of the test substances. Cell proliferation was determined by staining the cells with crystal violet: the cells were fixed by adding 20 μl/measuring point of an 11% glutaraldehyde solution for 15 min at room temperature. After washing the fixed cells with water three times, the plates were dried at room temperature. The cells were stained by adding 100 μl/measuring point of a 0.1% crystal violet solution (pH adjusted to pH 3 by adding acetic acid). After washing the stained cells with water three times, the plates were dried at room temperature. The dye was dissolved by adding 100 μl/measuring point of a 10% acetic acid solution. The extinction was determined photometrically at a wavelength of 595 nm. […] The IC50 values were determined by means of a 4-parameter fit using the company's own software.

Data set [3] relates to MCF7, hormone-independent human breast carcinoma cells. The experiment in a line: Proliferation assay (Assay 5), MCF7. The data set is classed as cell-based. The note with it: read-out: Concentration of the half-maximal inhibition of the cell proliferation, IC50.
Text: as §1

For data set [4], the system named is NCI-H460, human non-small-cell lung carcinoma cells. The experiment in a line: Proliferation assay (Assay 5), NCI-H460. The data set is classed as cell-based. Conditions: read-out: Concentration of the half-maximal inhibition of the cell proliferation, IC50.
Text: as §1

Data set [5] deals with DU 145, hormone-independent human prostrate carcinoma cells. The data set can be described thus: Proliferation assay (Assay 5), DU145. It counts as cell-based. The note with it: DU-145, 96 h, read-out: Concentration of the half-maximal inhibition of the cell proliferation, IC50.
Text: as §1

Data set [6] concerns Caco-2, human colon carcinoma cells. The experiment in a line: Proliferation assay (Assay 5), Caco-2. Conditions: read-out: Concentration of the half-maximal inhibition of the cell proliferation, IC50. It counts as cell-based.
Text: as §1

Data set [7] deals with B16F10, murine melanoma cell. The experiment in a line: Proliferation assay (Assay 5), B16F10. It counts as cell-based. Conditions: Mus musculus, B16-F10, 96 h, read-out: Concentration of the half-maximal inhibition of the cell proliferation, IC50.
Text: as §1

The nature of data set [8]: Permeability assay (Assay 6), Caco-2 monolayer. The data set is classed as in vitro ADME. Conditions: human; for efflux ratio at 90 min: Caco-2, read-out: ratio (b-a)/(a-b); for Papp A→B at 90 min / Papp B→A at 90 min: Caco-2, 90 min, 37° C.; for Papp A→B at 90 min: read-out: Permeation coefficient, Papp apical-basolateral (a-b); for Papp B→A at 90 min: read-out: Permeation coefficient, Papp basolateral-apical (b-a). As to the method: The Caco-2 monolayer is a barrier between 2 compartments. The cells here behave similarly to the small intestine cells. Active ingredients can be transported either paracellularly or transcellularly. Here, the transport takes place in most cases from apical (luminal) to basolateral (serosal). In the case of p-glycoprotein substrates, back-transport from basolateral to apical is also usually observed.
Experimental procedure: The permeability test is carried out both from apical to basolateral and also from basolateral to apical. For this, two filters are used per substance; incubation takes place over 90 min at 37° C. in a water bath. […] As reference substances, (i) PEG 4000 are used as hydrophilic marker. On account of its high molecular weight, it is unable to permeate into the cell membrane or into the pores of the tight junctions. PEG 4000 is therefore a marker of the intactness of the cell monolayer and the narrowness of the tight junctions. PEG 4000 is not absorbed in humans. (ii) Clonidine is known as completely absorbed substances in people (100%). They serve as markers for very highly permeable substances with Papp values above 100 nm/s. (iii) Digoxin is a known Pgp substrate. […] In the reverse experiment (basolateral to apical), the Papp values should be higher by a factor of about 10 as a result of the active directional transport into the apical compartment.
The permeation coefficient Papp is used to estimate the absorption in people according to the following scheme: […]
For orientation: Caco-2 monolayers are a common model of the intestinal barrier.

The subject of the next data set is Caco-2 monolayer. Conditions: reference substance, cited from earlier work.
The conditions of data set [9]: reference substance; cited from earlier work.
Data set [10] relates to HeLa-MaTu, human cervix carcinoma cells. The data set can be described thus: Proliferation assay (Assay 5), HeLa-MaTu. The note with it: 96 h, read-out: Concentration of the half-maximal inhibition of the cell proliferation, IC50. The data set is classed as cell-based.
Text: as §1

Molecules are shown by their SMILES. Read-outs that look alike come from different tables or passages of the source.

Sequence of CDK4/CycD1 (P11802 whole entry, the tested form may be a part): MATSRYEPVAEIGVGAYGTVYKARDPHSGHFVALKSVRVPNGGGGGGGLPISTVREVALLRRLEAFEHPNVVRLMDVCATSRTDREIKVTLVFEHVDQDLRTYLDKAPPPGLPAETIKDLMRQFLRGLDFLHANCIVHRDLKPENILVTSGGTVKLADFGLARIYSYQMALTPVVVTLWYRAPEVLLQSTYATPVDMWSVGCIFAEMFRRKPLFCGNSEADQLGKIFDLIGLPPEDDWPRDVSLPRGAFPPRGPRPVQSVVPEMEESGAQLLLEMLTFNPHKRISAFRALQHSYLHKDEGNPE
Sequence of CDK4/CycD1 (P24385 whole entry partner, the tested form may be a part): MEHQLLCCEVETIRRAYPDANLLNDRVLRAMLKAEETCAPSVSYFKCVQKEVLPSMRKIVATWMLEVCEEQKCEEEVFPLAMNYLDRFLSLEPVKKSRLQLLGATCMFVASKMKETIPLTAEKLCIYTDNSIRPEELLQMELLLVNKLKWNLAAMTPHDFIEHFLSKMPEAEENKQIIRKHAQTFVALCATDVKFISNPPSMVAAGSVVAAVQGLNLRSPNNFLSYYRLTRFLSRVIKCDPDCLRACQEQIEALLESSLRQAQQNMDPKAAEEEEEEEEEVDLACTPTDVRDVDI
Procedure for CDK1/CycB: CDK1/CycB (200 ng/measuring point) was incubated for 10 min at 22° C. in the presence of different concentrations of test substances (0 and within the range 0.001-10 μM) in assay buffer [50 mM Tris/HCl pH 8.0; 10 mM MgCl2; 0.1 mM Na ortho-vanadate; 1.0 mM dithiothreitol; 0.5 μM adenosine trisphosphate (ATP); 10 μg/measuring point histone IIIS; 0.2 μCi/measuring point ^33P-gamma ATP; 0.05% NP40; 1.25% dimethyl sulphoxide]. The reaction was stopped by adding EDTA solution (250 mM; pH 8.0; 15 μl/measuring point).
From each reaction mixture, 15 μl were applied to P30 filter strips (Wallac), and unincorporated ^33P-ATP was removed by washing the filter strips three times, for 10 min in each case, in 0.5% phosphoric acid. After drying the filter strips for 1 hour at 70°, the filter strips were covered with scintillator strips (MeltiLex™ A, Wallac) and stoved for 1 hour at 90° C. The amount of incorporated ^33P (substrate phosphorylation) was determined by scintillation measurement in a gamma-radiation measuring instrument (Wallac). […] The IC50 values were determined by means of a 4-parameter fit using the company's own software.
Procedure for CDK2/CycE: Recombinant CDK2 and CycE-GST fusion proteins, purified from baculovirus-infected insect cells (Sf9), were purchased from ProQinase GmbH, Freiburg. Histone IIIS, which was used as kinase substrate, was purchased from Sigma.
CDK2/CycE (50 mg/measuring point) was incubated for 10 min at 22° C. in the presence of different concentrations of test substances (0 μM, and within the range 0.001-10 μM) in assay buffer [50 mM Tris/HCl pH 8.0; 10 mM MgCl2; 0.1 mM Na ortho-vanadate; 1.0 mM dithiothreitol; 0.5 μM adenosine trisphosphate (ATP); 10 μg/measuring point histone IIIS; 0.2 μCi/measuring point ^33P-gamma ATP; 0.05% NP40; 1.25% dimethyl sulphoxide]. The reaction was stopped by adding EDTA solution (250 mM; pH 8.0; 15 μl/measuring point).
as §2

`C[C@@H](O)[C@@H](C)Nc1nc(Nc2ccc(S(=O)(=O)C3CC3)cc2)ncc1C(F)(F)F` [C1, (2R,3R)-3-[2-(4-Cyclopropanesulphonylphenylamino)-5-trifluoromethylpyrimidin-4-ylamino]butan-2-ol, reference compound]: the IC50 on CDK1/CycB was 8 nM; at CDK2/CycE it was 6 nM; on CDK4/CycD1 it was 52 nM; in data set [1] it was 51 nM; in data set [2] (HeLa-MaTu-ADR, 4 days), 26 nM; in data set [3] (96 h, MCF7, 4 days), 65 nM. The IC50 in [4] (96 h, NCI-H460, 4 days) amounted to 37 nM; in data set [5] (DU145, 4 days), 46 nM; in data set [6] (96 h, Caco-2, 4 days), 63 nM; in data set [7] (B16F10, 4 days) it was 78 nM. In data set [8], the efflux ratio at 90 min was 0.8. In addition, the apparent permeability from apical to basolateral (Papp A→B) at 90 min in [8] came out at 20.7 ×10⁻⁶ cm/s. Further, the Papp B→A at 90 min in data set [8] is 17.4 ×10⁻⁶ cm/s.

Regarding `C[C@@H](O)[C@@H](C)Nc1nc(Nc2ccc(S(C)(=O)=O)cc2)ncc1C(F)(F)F` [C2, (2R,3R)-3-[2-(4-Methanesulphonylphenylamino)-5-trifluoromethylpyrimidin-4-ylamino]butan-2-ol, reference compound], the IC50 came to 4 nM on CDK1/CycB; 4 nM on CDK2/CycE; 35 nM on CDK4/CycD1; 92 nM in data set [1]; 32 nM in [2] (HeLa-MaTu-ADR, 4 days); 43 nM in data set [3] (96 h, MCF7, 4 days). Further, the IC50 in data set [4] (96 h, NCI-H460, 4 days) came to 34 nM; in data set [5] (DU145, 4 days) it was 75 nM; in data set [6] (96 h, Caco-2, 4 days) it was 76 nM; in [7] (B16F10, 4 days), 89 nM. For the same compound, the efflux ratio at 90 min in data set [8] worked out at 1. Also, the Papp A→B at 90 min in data set [8] came to 18 ×10⁻⁶ cm/s. In data set [8], the Papp B→A at 90 min worked out at 17.8 ×10⁻⁶ cm/s.

`Clc1cccc(Cl)c1N=C1NCCN1` [Clonidine]: the “Papp values of reference marker” value in the data set on Caco-2 monolayer is “above 100 nm/s”. Moreover, the absorbed in people in [9] is 100%.

Regarding `C[C@H]1O[C@@H](O[C@H]2[C@@H](O)C[C@H](O[C@H]3[C@@H](O)C[C@H](O[C@H]4CC[C@@]5(C)[C@H](CC[C@@H]6[C@@H]5C[C@@H](O)[C@]5(C)[C@@H](C7=CC(=O)OC7)CC[C@]65O)C4)O[C@@H]3C)O[C@@H]2C)C[C@H](O)[C@@H]1O` [Digoxin], in the data set on Caco-2 monolayer (Pgp substrate), the “permeability from apical to basolateral” value is “low permeability”.

`C[C@@H](O)[C@@H](C)Oc1nc(Nc2ccc(S(=O)(=O)C3CC3)cc2)ncc1C(F)(F)F` [Example 1, (2R,3R)-3-[2-(4-Cyclopropanesulphonylphenylamino)-5-trifluoromethylpyrimidin-4-yloxy]butan-2-ol]: the IC50 on CDK1/CycB was found to be 16 nM; at CDK2/CycE, 16 nM; at CDK4/CycD1 it was 20 nM; in data set [10] (HeLa-MaTu, 4 days), 11 nM; in data set [2] (HeLa-MaTu-ADR, 4 days), 9 nM; in [3] (96 h, MCF7, 4 days) it was 23 nM. The IC50 in [4] (96 h, NCI-H460, 4 days) is 41 nM; in data set [5] (DU145, 4 days) it was 17 nM; in data set [6] (96 h, Caco-2, 4 days) it was 45 nM; in [7] (B16F10, 4 days), 49 nM. Further, the efflux ratio at 90 min in [8] worked out at 0.9. The apical-to-basolateral permeability (Papp A→B) at 90 min in [8] amounted to 16.5 ×10⁻⁶ cm/s. In addition, in data set [8], the Papp B→A at 90 min was determined as 14.7 ×10⁻⁶ cm/s.

Consider `C[C@@H](O)[C@@H](C)Oc1nc(Nc2ccc(S(C)(=O)=O)cc2)ncc1C(F)(F)F` [Example 2, (2R,3R)-3-[2-(4-Methanesulphonylphenylamino)-5-trifluoromethylpyrimidin-4-yloxy]butan-2-ol], for which the IC50 at CDK4/CycD1 is 24 nM; in data set [10], 14 nM; in data set [2], 14 nM; in [3] (MCF7, 96 h), 35 nM; in [4] (NCI-H460, 96 h), 38 nM; in data set [5], 34 nM. For the same compound, the IC50 in data set [6] (Caco-2, 96 h) stood at 66 nM; in [7], 70 nM. The Papp A→B at 90 min in data set [8] turned out to be 19.6 ×10⁻⁶ cm/s. Further, the apparent permeability from basolateral to apical (Papp B→A) at 90 min in [8] is 19.4 ×10⁻⁶ cm/s.

On to `C[C@@H](Oc1nc(Nc2ccc(S(C)(=O)=O)cc2)ncc1C(F)(F)F)C(C)(C)O` [Example 3, (R)-3-[2-(4-Methanesulphonylphenylamino)-5-trifluoromethylpyrimidin-4-yloxy]-2-methylbutan-2-ol], for which the IC50 was 32 nM at CDK1/CycB; 12 nM on CDK2/CycE; 78 nM at CDK4/CycD1; 35 nM in [10] (HeLa-MaTu, 4 days); 39 nM in [2] (HeLa-MaTu-ADR, 4 days); 160 nM in [3] (96 h, MCF7, 4 days). Moreover, the IC50 in data set [4] (96 h, NCI-H460, 4 days) is 140 nM; in [5] (DU145, 4 days), 74 nM; in [6] (96 h, Caco-2, 4 days), 180 nM; in [7] (B16F10, 4 days) it was 270 nM.
